Structures can show the parent of a compound that is named as a salt. Where two headings read alike, the source gives them in different places.
What was measured:
dopamine transporter = test system: dopamine transporter; parameters: method as in PMID 10525084; conditions: read-out: dopamine transport inhibition, previously published; cited from earlier work
sigma-2 receptor = molecular target: T1, sigma-2 receptor (Homo sapiens, UniProt Q5BJF2); assay: biochemical; assay type: binding
T1 construct: MCF7 cells were suspended in sigma-2 assay buffer (50 mM Tris-HCl; pH 8.0), sonicated (1 minute) and the homogenate was centrifuged; endogenous in cells; host or cells: MCF7 cells (gift), membrane pellet
T1 sequence (Q5BJF2 whole entry): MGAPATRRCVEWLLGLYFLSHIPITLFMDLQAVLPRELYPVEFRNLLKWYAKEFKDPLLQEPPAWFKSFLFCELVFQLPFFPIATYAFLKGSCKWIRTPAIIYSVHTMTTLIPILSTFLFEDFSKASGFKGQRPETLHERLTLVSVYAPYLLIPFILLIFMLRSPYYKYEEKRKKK

[1] = molecular target: muscarinic acetylcholine receptor; assay type: binding, rat; conditions: for mACh R affinity pKi ± SEM (n) / Ki: rat brain membranes; for mACh R affinity pKi ± SEM (n): 1.35 nM [3H] QNB; for Ki: read-out: mACh R affinity Ki; for mACh R Ki/σ-1 R Ki: ratio between Ki values
MDA-MB-468 cells [2] = conditions: cited from earlier work
MDA-MB-468 cells [3] = conditions: cited from earlier work; remark: listed apart in the source
mice = assay: Forced-swim test; assay type: in vivo; conditions: doses up to 10 mg.kg−1
MDA-MB-468 cells [4] = assay: cells; assay type: cell-based
MCF7 cells = assay type: cell-based
MDA-MB-468 cells [5] = assay: Fura-2 cytoplasmic calcium measurement in MDA-MB-468 cells; assay type: cell-based; conditions: data not shown
human 5-HT transporter = human 5-HT transporter (Homo sapiens, UniProt P31645); assay type: cell-based; conditions: read-out: IC50 serotonin reuptake
human 5-HT transporter, sequence (P31645 whole entry): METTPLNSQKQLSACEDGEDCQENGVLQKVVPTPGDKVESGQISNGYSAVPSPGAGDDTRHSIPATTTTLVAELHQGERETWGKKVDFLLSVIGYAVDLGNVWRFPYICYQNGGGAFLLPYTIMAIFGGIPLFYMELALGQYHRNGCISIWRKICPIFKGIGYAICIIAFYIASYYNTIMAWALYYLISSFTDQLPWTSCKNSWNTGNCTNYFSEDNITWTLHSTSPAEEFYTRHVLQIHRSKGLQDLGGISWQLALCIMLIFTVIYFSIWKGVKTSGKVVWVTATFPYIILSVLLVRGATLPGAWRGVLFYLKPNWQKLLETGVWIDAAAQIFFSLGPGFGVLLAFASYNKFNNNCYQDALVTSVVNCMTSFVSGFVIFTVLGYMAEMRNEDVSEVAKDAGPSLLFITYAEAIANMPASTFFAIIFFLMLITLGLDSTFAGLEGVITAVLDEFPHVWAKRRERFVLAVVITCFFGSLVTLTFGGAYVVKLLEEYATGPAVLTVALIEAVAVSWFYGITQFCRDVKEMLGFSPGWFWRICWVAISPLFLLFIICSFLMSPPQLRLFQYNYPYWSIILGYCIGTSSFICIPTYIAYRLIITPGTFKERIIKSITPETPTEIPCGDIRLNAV

[6] = molecular target: T2, human dopamine transporter (Homo sapiens, UniProt Q01959); assay: Monoamine transporter uptake assay, 293 cells expressing dopamine transporter; assay type: cell-based; conditions: read-out: IC50 dopamine transport
T2 construct: expressed in transfected cells
T2 sequence (Q01959 whole entry): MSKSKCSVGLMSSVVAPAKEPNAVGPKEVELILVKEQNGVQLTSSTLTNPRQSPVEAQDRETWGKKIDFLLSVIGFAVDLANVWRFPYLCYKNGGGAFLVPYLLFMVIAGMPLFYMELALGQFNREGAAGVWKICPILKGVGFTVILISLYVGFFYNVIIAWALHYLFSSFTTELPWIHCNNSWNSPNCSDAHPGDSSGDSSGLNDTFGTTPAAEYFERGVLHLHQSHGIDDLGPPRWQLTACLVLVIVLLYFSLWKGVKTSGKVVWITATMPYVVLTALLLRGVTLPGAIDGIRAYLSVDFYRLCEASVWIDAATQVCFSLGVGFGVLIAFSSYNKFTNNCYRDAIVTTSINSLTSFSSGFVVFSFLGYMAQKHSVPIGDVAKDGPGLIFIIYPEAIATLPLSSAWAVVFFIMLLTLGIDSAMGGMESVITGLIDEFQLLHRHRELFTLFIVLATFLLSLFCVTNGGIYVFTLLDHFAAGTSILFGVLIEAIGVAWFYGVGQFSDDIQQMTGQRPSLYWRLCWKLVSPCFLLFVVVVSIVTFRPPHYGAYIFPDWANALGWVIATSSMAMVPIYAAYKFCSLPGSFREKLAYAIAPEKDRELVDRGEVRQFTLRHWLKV

[7] = molecular target: human noradrenaline transporter (Homo sapiens, UniProt P23975); assay: Monoamine transporter uptake assay, 293 cells expressing noradrenaline transporter; assay type: cell-based; conditions: read-out: IC50 noradrenaline transport
human noradrenaline transporter, sequence (P23975 whole entry): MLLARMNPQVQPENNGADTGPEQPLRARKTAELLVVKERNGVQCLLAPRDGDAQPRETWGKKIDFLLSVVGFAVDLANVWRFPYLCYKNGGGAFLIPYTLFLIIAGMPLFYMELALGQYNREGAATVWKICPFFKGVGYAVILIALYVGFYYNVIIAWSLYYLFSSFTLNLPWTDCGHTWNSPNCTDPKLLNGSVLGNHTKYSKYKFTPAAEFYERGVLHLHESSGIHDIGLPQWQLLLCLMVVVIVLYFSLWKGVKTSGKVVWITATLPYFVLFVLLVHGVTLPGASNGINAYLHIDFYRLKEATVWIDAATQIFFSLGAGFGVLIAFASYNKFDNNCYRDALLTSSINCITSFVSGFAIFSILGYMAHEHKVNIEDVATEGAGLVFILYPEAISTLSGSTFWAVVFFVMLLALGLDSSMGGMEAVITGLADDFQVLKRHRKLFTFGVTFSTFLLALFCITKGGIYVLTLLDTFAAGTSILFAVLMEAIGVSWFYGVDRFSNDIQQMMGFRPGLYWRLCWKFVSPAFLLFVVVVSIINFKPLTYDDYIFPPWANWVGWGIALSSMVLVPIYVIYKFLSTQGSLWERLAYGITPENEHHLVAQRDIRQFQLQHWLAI

MAC13 cells = assay: MTS assay in MAC13 cells in vitro; assay type: cell-based, mouse; conditions: mean ± SEM, n = 6
Procedure: Cells (10,000 cells per well, 100 μl) were seeded into 96-well plates and allowed to adhere overnight. The following day drugs were added and cells were permitted to proliferate for 24 hours before the addition of 10 μl CellTiter 96 AQueous Non-Radioactive Cell Proliferation Assay reagent (Promega, Southampton, UK) as previously described. Absorbance (490 nm) readings were taken at 0, 1, 2 and 3 hours to monitor formazan formation and rates of metabolic activity were compared.

CCCCCCN.Cl [Hexyl]
σ-2 R affinity pKi ± SEM (n) (sigma-2 receptor): 5.1 ± 0.2 (3)
Ki (sigma-2 receptor; read-out: σ-2 R affinity Ki): 7.8 µM

N=C(Nc1ccc(I)cc1)NC1C2CC3CC(C2)CC1C3 (centres unmarked) [IPAG, 1-(4-iodophenyl)-3-(2-adamantyl)guanidine]
mACh R affinity pKi ± SEM (n) [1]: 4.3
pEC50 reduction of cellular metabolic activity (MDA-MB-468 cells [2]): 4.6
EC50 (MDA-MB-468 cells [2]; read-out: EC50 reduction of cellular metabolic activity): 24 µM
pEC50 calcium signalling (MDA-MB-468 cells [3]): 3.9
EC50 (MDA-MB-468 cells [3]; read-out: EC50 calcium signalling): 123 µM

CCCCCCCCN.Cl [Octyl]
σ-2 R affinity pKi ± SEM (n) (sigma-2 receptor): 5.2 ± 0.2 (3)
Ki (sigma-2 receptor; read-out: σ-2 R affinity Ki): 6.2 µM

CCCCCN [Pentyl]
σ-2 R affinity pKi ± SEM (n) (sigma-2 receptor): 3.9 ± 0.1 (3)
Ki (sigma-2 receptor; read-out: σ-2 R affinity Ki): 130 µM

CCCN [Propyl]
σ-2 R affinity pKi ± SEM (n) (sigma-2 receptor): <3 (3)

C[C@@H]1CN(CCCn2c3ccccc3c3ccccc32)C[C@H](C)N1 [Rimcazole, 9-[3-(cis−3,5-dimethyl-1-piperizinyl)propyl]-9H-carbazole dihydrochloride, reference compound]
mACh R affinity pKi ± SEM (n) [1]: 4.49 ± 0.10 (7)
mACh R affinity pKi ± SEM (n) ([1]; listed as rimcazole): 4.5 ± 0.1
Ki [1]: 32 µM

CCCC[N+](CCCC)(CCCC)CCCC [Tetrabutyl, tetrabutylammonium]
Ki (sigma-2 receptor): 60 µM

CC[N+](CC)(CC)CC [Tetraethyl]
σ-2 R affinity pKi ± SEM (n) (sigma-2 receptor): <3 (3)

CCCCCCCCCCCCN(CCCCCCCCCCCC)CCCCCCCCCCCC [Tridodecyl]
σ-2 R affinity pKi ± SEM (n) (sigma-2 receptor): 4.1 ± 0.6 (3)
Ki (sigma-2 receptor; read-out: σ-2 R affinity Ki): 76 µM

CCN(CC)CC [Triethyl]
σ-2 R affinity pKi ± SEM (n) (sigma-2 receptor): 3.66 ± 0.04 (3)
Ki (sigma-2 receptor; read-out: σ-2 R affinity Ki): 220 µM

CCCCCCN(CCCCCC)CCCCCC [Trihexyl, trihexylammonium]
σ-2 R affinity pKi ± SEM (n) (sigma-2 receptor): 6.63 ± 0.03 (3)
Ki (sigma-2 receptor; read-out: σ-2 R affinity Ki): 0.23 µM

CC(C)CN(CC(C)C)CC(C)C.Cl [Triisobutyl]
σ-2 R affinity pKi ± SEM (n) (sigma-2 receptor): 5.46 ± 0.06 (3)
Ki (sigma-2 receptor; read-out: σ-2 R affinity Ki): 3.5 µM

CN(C)C.Cl [Trimethyl]
σ-2 R affinity pKi ± SEM (n) (sigma-2 receptor): <3 (3)

CCCCCCCCN(CCCCCCCC)CCCCCCCC.Cl [Trioctyl]
σ-2 R affinity pKi ± SEM (n) (sigma-2 receptor): 3.74 ± 0.06 (3)
Ki (sigma-2 receptor; read-out: σ-2 R affinity Ki): 180 µM

CCCCCN(CCCCC)CCCCC [Tripentyl, tripentylammonium]
σ-2 R affinity pKi ± SEM (n) (sigma-2 receptor): 6.1 ± 0.1 (3)
Ki (sigma-2 receptor; read-out: σ-2 R affinity Ki): 0.78 µM
mACh R affinity pKi ± SEM (n) [1]: 4.3 ± 0.4 (4)
Ki [1]: 47 µM
mACh R Ki/σ-1 R Ki [1]: 3130
effect on immobility time, forced-swim test (mice): did not have any significant effect

CCCN(CCC)CCC [Tripropyl]
σ-2 R affinity pKi ± SEM (n) (sigma-2 receptor): 4.36 ± 0.07 (3)
Ki (sigma-2 receptor; read-out: σ-2 R affinity Ki): 44 µM

triisopentylammonium
higher affinity for sigma-2 receptors over sigma-1 receptors (sigma-2 receptor): 200 fold
σ-2 R affinity pKi ± SEM (n) (sigma-2 receptor): 6.40 ± 0.09 (3)
Ki (sigma-2 receptor; read-out: σ-2 R affinity Ki): 0.4 µM
pIC50 reduction of cell metabolism (MDA-MB-468 cells [4]): 2.96 ± 0.06
pIC50 reduction of cell metabolism, non-targeting control (MDA-MB-468 cells [4]): 2.9 ± 0.2
effect on MCF7 cells in MTS assay (MCF7 cells): without effect
concentration showing a calcium response (MDA-MB-468 cells [5]): ≥ 1 mM
mACh R affinity pKi ± SEM (n) [1]: 3.60 ± 0.11 (5)
Ki [1]: 251 µM
mACh R Ki/σ-1 R Ki [1]: 3.4
IC50 (human 5-HT transporter): 7800 µM
IC50 [6]: 1600 µM
IC50 [7]: 7800 µM
pIC50 reduction in MAC13 cell metabolism (MAC13 cells): 4.4 ± 0.2
MAC13 tumour growth compared to vehicle control (MAC13 tumours; 10 mg.kg−1 i.v. daily from day 12, P < 0.001): statistically significant reduction in tumour growth
tolerability in tumour-bearing mice (MAC13 tumours; 10 mg.kg−1 i.v. daily, grooming activity maintained): no negative signs

Source: publication PMC7280195, “Simple ammonium salts acting on sigma-1 receptors yield potential treatments for cancer and depression” (Scientific Reports, 2020)
